According to patent publication US9988366B2, “Pesticidally active heterocyclic derivatives with sulphur containing substituents” (Syngenta Participations AG, priority 2014, dated 2018):

How the values were obtained:
Type in all cases: in vivo
[1] = test system: Spodoptera littoralis (Egyptian cotton leaf worm); test: Example B2: Spodoptera littoralis systemic activity (lettuce on agar); settings: 120 h, systemic via lettuce roots, 5 days after infestation, read-out: effect in at least one of the three categories (mortality, anti-feedancy, or growth inhibition)
Excerpt: Example B2: Activity Against Spodoptera littoralis (Egyptian Cotton Leaf Worm)
Test compounds were applied by pipette into 24 well plates and mixed with agar. Lettuce seeds were placed on the agar and the multi well plate is closed by another plate which contains also agar. After 7 days the roots have absorbed the compound and the lettuce has grown into the lid plate. The lettuce leaves were now cut off into the lid plate. Spodoptera eggs were pipetted through a plastic stencil on a humid gel blotting paper and the plate closed with it. The samples are checked for mortality, repellent effect, feeding behavior, and growth regulation 5 days after infestation.

[2] = test system: Tetranychus urticae (two-spotted spider mite); test: Example B10: Tetranychus urticae, bean leaf disc spray test; settings: foliar, 192 h
Protocol: Example B10: Activity Against Tetranychus urticae (Two-Spotted Spider Mite)
Bean leaf discs on agar in 24-well microtiter plates were sprayed with aqueous test solutions prepared from 10′000 ppm DMSO stock solutions. After drying the leaf discs were infested with a mite population of mixed ages. The samples were assessed for mortality on mixed population (mobile stages) 8 days after infestation.

[3] = test system: Spodoptera littoralis (Egyptian cotton leaf worm); test: Example B1: Spodoptera littoralis larvicide, feeding/residual contact activity, preventive (cotton leaf discs); settings: foliar, 72 h, L1 larvae on sprayed cotton leaf discs, 3 days after treatment, read-out: effect in at least one of the three categories (mortality, anti-feedancy, or growth inhibition)
Excerpt: Example B1: Activity Against Spodoptera littoralis (Egyptian Cotton Leaf Worm)
(§1) (Larvicide, Feeding/Residual Contact Activity, Preventive)
Cotton leaf discs were placed on agar in a 24-well microtiter plate and sprayed with test solutions. After drying, the leaf discs were infested with five L1 larvae. The samples were checked for mortality, repellent effect, feeding behaviour, and growth regulation 3 days after treatment (DAT). Control of Spodoptera littoralis by a test sample is when at least one of mortality, anti-feedant effect, and growth inhibition is higher than an untreated sample.

[4] = test system: Myzus persicae (green peach aphid); test: Example B5: Myzus persicae feeding/residual contact activity, preventive, mixed population (sunflower leaf discs); settings: foliar, 144 h, mixed population on sunflower leaf discs, 6 DAT
Protocol: Example B5: Activity Against Myzus persicae (Green Peach Aphid)
(Feeding/Residual Contact Activity, Preventive), Mixed Population
Sunflower leaf discs were placed on agar in a 24-well microtiter plate and sprayed with test solutions. After drying, the leaf discs were infested with an aphid population of mixed ages. After an incubation period of 6 DAT, samples were checked for mortality and special effects (e.g. phytotoxicity).

[5] = test system: Diabrotica balteata (corn root worm); test: Example B4: Diabrotica balteata larvae L2 on maize sprouts, feeding/contact, preventative; settings: 120 h, 5 days, read-out: activity (larval mortality and growth regulation)
Protocol: Example B4: Activity Against Diabrotica balteata (Corn Root Worm)
(Larvae L2 on Maize Sprouts, Feeding/Contact, Preventative)
Maize sprouts, placed on an agar layer in 24 well micro titer plates were treated with test solutions by spraying. After drying, the MTPs were infested with L2 larvae (6-10 per well). After an incubation period of 5 days, samples were checked for larval mortality and growth regulation.

[6] = test system: Bemisia tabaci (cotton white fly); test: Example B7: Bemisia tabaci adulticide contact activity, preventative (cotton leaf discs); settings: foliar, 168 h, adult white flies on cotton leaf discs, 7 DAT
Protocol: Example B7: Activity Against Bemisia tabaci (Cotton White Fly)
(Adulticide Contact Activity, Preventative), Adult
Cotton leaf discs were placed on agar in a 24-well microtiter plate and sprayed with test solutions. After drying, the leaf discs were infested with adult white flies. After an incubation period of 7 DAT, samples were checked for mortality and special effects (e.g. phytotoxicity).

[7] = test system: Myzus persicae (green peach aphid); test: Example B9: Myzus persicae systemic/feeding activity, curative, mixed population (pea seedling roots); settings: 144 h, pea seedling roots in test solution, 6 days after introduction
Excerpt: Example B9: Activity Against Myzus persicae (Green Peach Aphid)
(Systemic/Feeding Activity, Curative), Mixed Population
Roots of pea seedlings, infested with an aphid population of mixed ages, were placed directly in the test solutions. 6 days after introduction, samples were checked for mortality and special effects on the plant.

[8] = test system: Plutella xylostella (diamond back moth); test: Example B3: Plutella xylostella larvicide, feeding/residual contact activity, preventive (artificial diet); settings: 120 h, L2 larvae on artificial diet, 5 days, read-out: activity (larval mortality, antifeedant and growth regulation)
Protocol: Example B3: Activity Against Plutella xylostella (Diamond Back Moth)
as §1
24-well microtiter plate (MTP) with artificial diet was treated with test solutions by pipetting. After drying, the MTPs were infested with L2 larvae (10-15 per well). After an incubation period of 5 days, samples were checked for larval mortality, antifeedant and growth regulation.

[9] = test system: Euschistus heros (neotropical brown stink bug); test: Example B8: Euschistus heros, soybean leaf spray test; settings: 120 h, N-2 nymphs on soybean leaf, 5 days after infestation
Protocol: Example B8: Activity Against Euschistus heros (Neotropical Brown Stink Bug)
Soybean leaf on agar in 24-well microtiter plates were sprayed with aqueous test solutions prepared from 10,000 ppm DMSO stock solutions. After drying the leaf were infested with N-2 nymphs. The samples were assessed for mortality 5 days after infestation.

[10] = test system: Myzus persicae (green peach aphid); test: Example B6: Myzus persicae feeding activity sachet test, mixed population; settings: 120 h, sucrose solution, 5 days after infestation
Excerpt: Example B6: Activity Against Myzus persicae (Green Peach Aphid)
(Feeding Activity Sachet Test), Mixed Population
Test compounds were applied by pipette into 24 well plates and mixed with Sucrose solution. The plates were closed with a stretched Parafilm. A plastic stencil with 24 holes is placed onto the plate and infested pea seedlings were placed directly on the Parafilm. The infested plate is closed with a gel blotting paper and another plastic stencil and then turned upside down. 5 days after infestation the samples were checked on mortality. Application rate: 12.5 ppm.

CCS(=O)(=O)c1cc(C(F)(F)F)cnc1-c1ncc(-c2cc(C(F)(F)F)ccn2)n1C [Compound P3]
percent control (mortality, anti-feedancy or growth inhibition) at 12.5 ppm [1]: ≥ 80% | mortality at 400 ppm [2]: ≥ 80% | percent control (mortality, anti-feedancy or growth inhibition) at 400 ppm [3]: ≥ 80% | mortality at 400 ppm [4]: > 80% | mortality at 400 ppm [5]: > 80%

CCS(=O)(=O)c1cc(C(F)(F)F)cnc1-c1ncc(-c2ccc(C(F)(F)F)nc2)n1C [Compound P4]
percent control (mortality, anti-feedancy or growth inhibition) at 12.5 ppm [1]: ≥ 80% | mortality at 400 ppm [6]: > 80% | mortality at 24 ppm [7]: ≥ 80% | mortality at 400 ppm [8]: > 80% | percent control (mortality, anti-feedancy or growth inhibition) at 400 ppm [3]: ≥ 80% | mortality at 400 ppm [4]: > 80% | mortality at 400 ppm [9]: > 80% | mortality at 400 ppm [5]: > 80%

CCS(=O)(=O)c1cc(C(F)(F)F)cnc1-c1ncc(-c2ccnc(C(F)(F)F)c2)n1C [Compound P6]
mortality at 400 ppm [6]: > 80% | mortality at 400 ppm [8]: > 80% | percent control (mortality, anti-feedancy or growth inhibition) at 400 ppm [3]: ≥ 80% | mortality at 400 ppm [4]: > 80% | mortality at 400 ppm [5]: > 80%

CCS(=O)(=O)c1cc(C(F)(F)F)ccc1-c1ncc(-c2ccc(C(F)(F)F)cc2)n1C [Compound P9]
percent control (mortality, anti-feedancy or growth inhibition) at 12.5 ppm [1]: ≥ 80% | mortality at 400 ppm [6]: > 80% | mortality at 400 ppm [8]: > 80% | percent control (mortality, anti-feedancy or growth inhibition) at 400 ppm [3]: ≥ 80% | mortality at 400 ppm [4]: > 80% | mortality at 400 ppm [5]: > 80%

CCS(=O)(=O)c1cc(C(F)(F)F)ccc1-c1ncc(-c2ccc(C(F)(F)F)nc2)n1C [Compound P10]
percent control (mortality, anti-feedancy or growth inhibition) at 12.5 ppm [1]: ≥ 80% | mortality at 400 ppm [6]: > 80% | mortality at 400 ppm [8]: > 80% | percent control (mortality, anti-feedancy or growth inhibition) at 400 ppm [3]: ≥ 80% | mortality at 400 ppm [4]: > 80% | mortality at 400 ppm [5]: > 80%

CCS(=O)(=O)c1cc(C(F)(F)F)cnc1-c1ncc(-c2ccc(S(=O)(=O)C(F)(F)F)cc2)n1C [Compound P12]
percent control (mortality, anti-feedancy or growth inhibition) at 12.5 ppm [1]: ≥ 80% | mortality at 400 ppm [8]: > 80% | percent control (mortality, anti-feedancy or growth inhibition) at 400 ppm [3]: ≥ 80% | mortality at 400 ppm [5]: > 80%

CCS(=O)(=O)c1cc(C(F)(F)F)cnc1-c1ncc(-c2ccc(SC(F)(F)F)cc2)n1C [Compound P15]
percent control (mortality, anti-feedancy or growth inhibition) at 12.5 ppm [1]: ≥ 80% | mortality at 400 ppm [6]: > 80% | mortality at 400 ppm [8]: > 80% | percent control (mortality, anti-feedancy or growth inhibition) at 400 ppm [3]: ≥ 80% | mortality at 400 ppm [4]: > 80% | mortality at 400 ppm [9]: > 80% | mortality at 400 ppm [5]: > 80%

CCS(=O)(=O)c1cc(C(F)(F)F)cnc1-c1ncc(-c2ccnc(F)c2)n1C [Compound P39]
mortality at 24 ppm [7]: ≥ 80% | mortality at 400 ppm [8]: > 80% | percent control (mortality, anti-feedancy or growth inhibition) at 400 ppm [3]: ≥ 80% | mortality at 12.5 ppm [10]: ≥ 80% | mortality at 400 ppm [5]: > 80%

CCS(=O)(=O)c1cc(C(F)(F)F)cnc1-c1ncc(-c2cnc(C(F)(F)F)nc2)n1C [Compound P50]
mortality at 24 ppm [7]: ≥ 80% | mortality at 400 ppm [8]: > 80% | percent control (mortality, anti-feedancy or growth inhibition) at 400 ppm [3]: ≥ 80% | mortality at 12.5 ppm [10]: ≥ 80% | mortality at 400 ppm [5]: > 80%

CCS(=O)(=O)c1cc(C(F)(F)F)cnc1-c1ncc(-c2ccc(F)nc2)n1C [Compound P54]
mortality at 24 ppm [7]: ≥ 80% | mortality at 400 ppm [8]: > 80% | percent control (mortality, anti-feedancy or growth inhibition) at 400 ppm [3]: ≥ 80% | mortality at 12.5 ppm [10]: ≥ 80% | mortality at 400 ppm [5]: > 80%
